Key:
[1] = target: T1, purified p58 (Homo sapiens, UniProt P14618); assay: Binding of [125I]T3 and analogs to purified p58; conditions: competition with [125I]T3, equilibrium conditions
T1 construct: p 58 was purified from A431 cells; endogenous in cells; host or cells: A431 cells (purified native protein)
Protocol: Binding data were analyzed by least squares analysis as described in Horiuchi et al, supra.

[2] = target: T2, p58 (Homo sapiens, UniProt P14618); assay: T3 binding in subcellular fractions of A431 cells; conditions: for Specific [125I]T3 bound: 50 ug protein
T2 construct: endogenous in cells; host or cells: A431 cells
Protocol: Overnight cultures of A431 cells (1×10^7 cells/150 mm dish) were washed with 30 ml of PBS (Ca^++ and Mg^++ free). Cells were harvested with a rubber policeman and pelleted. The cell pellet was resuspended in 2 ml of homogenization buffer (0.25M sucrose, 20 mM Tris, 1.1 mM MgCl2, pH 7.85) and homogenized in a tight dounce homogenizer. After centrifugation at 800 xg for 10 min, the supernatant was further centrifuged at 110,000 xg for 90 min at 4° C. (supernatant A). The pellet was resuspended by pipetting in 1 ml of the homogenizing buffer. The suspension was centrifuged at 110,000 xg for 90 min (supernatant B). The pellet was extracted with 1 ml of 3 mM CHAPS by stirring for 30 min. The suspension was centrifuged at 110,000 xg for 90 min (supernatant C).

T2 sequence (P14618 2-531 limits assumed): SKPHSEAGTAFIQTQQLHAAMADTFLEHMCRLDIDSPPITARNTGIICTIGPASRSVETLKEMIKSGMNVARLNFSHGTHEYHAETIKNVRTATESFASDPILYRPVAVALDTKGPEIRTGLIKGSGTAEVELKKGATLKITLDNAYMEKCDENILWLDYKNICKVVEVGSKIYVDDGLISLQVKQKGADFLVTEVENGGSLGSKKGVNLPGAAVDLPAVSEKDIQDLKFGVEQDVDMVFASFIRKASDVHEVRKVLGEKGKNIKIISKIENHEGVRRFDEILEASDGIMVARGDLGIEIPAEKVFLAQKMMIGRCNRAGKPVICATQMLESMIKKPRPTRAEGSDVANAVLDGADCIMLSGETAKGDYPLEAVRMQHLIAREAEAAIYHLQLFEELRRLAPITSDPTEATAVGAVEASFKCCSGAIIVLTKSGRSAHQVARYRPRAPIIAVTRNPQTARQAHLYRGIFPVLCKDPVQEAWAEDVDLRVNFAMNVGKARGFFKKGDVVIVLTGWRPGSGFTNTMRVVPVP
T1 sequence (P14618 whole entry): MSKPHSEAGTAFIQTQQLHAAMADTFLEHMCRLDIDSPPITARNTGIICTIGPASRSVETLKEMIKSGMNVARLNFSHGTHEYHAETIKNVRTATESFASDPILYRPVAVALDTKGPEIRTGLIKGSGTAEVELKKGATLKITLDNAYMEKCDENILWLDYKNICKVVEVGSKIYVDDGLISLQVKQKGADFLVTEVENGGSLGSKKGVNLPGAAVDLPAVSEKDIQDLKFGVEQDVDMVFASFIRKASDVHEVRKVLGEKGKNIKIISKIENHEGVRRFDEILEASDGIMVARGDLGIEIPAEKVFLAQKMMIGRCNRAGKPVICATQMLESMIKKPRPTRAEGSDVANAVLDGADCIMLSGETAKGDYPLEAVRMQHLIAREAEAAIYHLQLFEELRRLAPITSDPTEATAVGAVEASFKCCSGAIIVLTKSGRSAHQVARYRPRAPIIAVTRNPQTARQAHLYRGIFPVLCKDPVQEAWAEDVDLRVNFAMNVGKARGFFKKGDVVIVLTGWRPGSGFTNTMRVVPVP

## N[C@@H](Cc1ccc(Oc2cc(I)c(O)c(I)c2)c(I)c1)C(=O)O [reverse-T3]
[1]
  affinity for p58, fold less than that of T3: 10 fold

## N[C@@H](Cc1cc(I)c(Oc2ccc(O)c(I)c2)c(I)c1)C(=O)O [[^125 I]T3]
[2]; 110,000 xg Pellet
  Specific [125I]T3 bound, % of total: 6 % of total
  Specific [125I]T3 bound: 0.17 dpm(× 10^-4)
[2]; 110,000 xg Supernatant
  Specific [125I]T3 bound, % of total: 94 % of total
  Specific [125I]T3 bound: 2.5 dpm(× 10^-4)

## N[C@@H](Cc1cc(I)c(Oc2cc(I)c(O)c(I)c2)c(I)c1)C(=O)O [T4]
[1]
  affinity for p58 compared with T3: affinity similar to that of T3

Source: patent US5234815A, “Monoclonal antibodies against cytosolic thyroid hormone binding protein” (The United States of America as represented by the …, priority 1991, dated 1993)
